Results: US20110082114A1, “Methods of Treating Aneurysmal Dilatation, Blood Vessel Wall Weakness and Specifically Abdominal Aortic and Thoracic Aneurysm Using Matrix Metalloprotease-2 Inhibitors” (SYMPHONY EVOLUTION, INC., priority 2009, published 2011)

target: T1, mADAM-10 or hADAM-10 (UniProt O14672); assay: ADAM-10 enzyme assay (fluorogenic peptide cleavage); format: biochemical;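 further: fluorescence from cleavage of a quenched 10-residue DABCYL/EDANS peptide by 5 nM enzyme in HEPES pH 8.0 buffer, 16 hr at room temperature, compounds serially diluted 100 µM to 0.5 nM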
T1 sequence (O14672 1-748): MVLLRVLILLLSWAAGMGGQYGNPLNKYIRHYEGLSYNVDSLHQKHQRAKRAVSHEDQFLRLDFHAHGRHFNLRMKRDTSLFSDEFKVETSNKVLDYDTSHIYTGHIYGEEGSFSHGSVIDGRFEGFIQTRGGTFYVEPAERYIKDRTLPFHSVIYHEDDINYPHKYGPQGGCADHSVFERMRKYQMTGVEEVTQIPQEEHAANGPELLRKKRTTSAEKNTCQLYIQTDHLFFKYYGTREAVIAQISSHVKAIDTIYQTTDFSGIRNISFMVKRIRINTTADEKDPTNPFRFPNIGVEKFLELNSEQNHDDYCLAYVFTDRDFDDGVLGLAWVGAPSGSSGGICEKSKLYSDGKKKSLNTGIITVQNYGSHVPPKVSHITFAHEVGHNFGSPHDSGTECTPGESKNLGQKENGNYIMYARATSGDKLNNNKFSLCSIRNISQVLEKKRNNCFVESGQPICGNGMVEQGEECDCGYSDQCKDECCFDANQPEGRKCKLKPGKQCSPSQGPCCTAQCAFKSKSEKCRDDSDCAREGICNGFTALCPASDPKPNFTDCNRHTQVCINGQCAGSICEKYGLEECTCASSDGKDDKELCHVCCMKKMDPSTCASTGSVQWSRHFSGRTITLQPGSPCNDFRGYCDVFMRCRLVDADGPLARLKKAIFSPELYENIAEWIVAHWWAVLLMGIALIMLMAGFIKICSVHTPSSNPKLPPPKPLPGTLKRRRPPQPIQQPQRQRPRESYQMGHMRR
Description: mADAM-10 or hADAM-10 activity was measured as the ability to cleave a 10-residue peptide (DABCYL-Leu-Leu-Ala-Gln-Lys-*-Leu-Arg-Ser-Ser-Arg-EDANS). […] Enzyme was diluted to a final active concentration of 5 nM in Buffer A (50 mM HEPES 8.0, 100 mM NaCl, 1 mM CaCl2 and 0.01% NP-40). Serial dilutions for compounds were performed ranging from 100 μM to 0.5 nM using a Beckman Biomek 2000 in polypropylene plates (Greiner). […] This reaction was incubated for 16 hr at RT and fluorescence was read using identical conditions.

IC50 [nM] | Structure (SMILES)
< 50 | O=C(NO)[C@H]1CN(S(=O)(=O)Cc2ccncc2)CCN1S(=O)(=O)c1cc(F)c(Oc2ccc(Cl)cc2)c(F)c1 [Entry 34]
< 50 | O=C(CCl)NC(=O)N1CCN(S(=O)(=O)c2cc(F)c(Oc3ccc(Cl)cc3)c(F)c2)[C@@H](C(=O)NO)C1 [Entry 33]
< 50 | CCOC(=O)N1CCN(CCS(=O)(=O)N2CCN(S(=O)(=O)c3cc(F)c(Oc4ccc(Cl)cc4)c(F)c3)[C@@H](C(=O)NO)C2)CC1 [Entry 56]
< 50 | O=C(NO)[C@H]1CN(S(=O)(=O)c2cccnc2O)CCN1S(=O)(=O)c1cc(F)c(Oc2ccc(Cl)cc2)c(F)c1 [Entry 45]
< 50 | O=C(NO)[C@H]1CN(C(=O)CN2CCCCC2)CCN1S(=O)(=O)c1cc(F)c(Oc2ccc(Cl)cc2)c(F)c1 [Entry 26]
1000 to 20000 | CN(C)c1ccc2ccc(S(=O)(=O)N3CCN(S(=O)(=O)c4cc(F)c(Oc5ccc(Cl)cc5)c(F)c4)[C@@H](C(=O)NO)C3)cc2c1 [Entry 50]
< 50 | O=C(NO)[C@H]1CN(C(=O)OCCN2CCCCC2)CCN1S(=O)(=O)c1cc(F)c(Oc2ccc(Cl)cc2)c(F)c1 [Entry 27]
< 50 | O=C(NO)[C@H]1CN(C(=O)N2CCOCC2)CCN1S(=O)(=O)c1cc(F)c(Oc2ccc(Cl)cc2)c(F)c1 [Entry 30]
< 50 | CCCC(CCC)C(=O)N1CCN(S(=O)(=O)c2cc(F)c(Oc3ccc(Cl)cc3)c(F)c2)[C@@H](C(=O)NO)C1 [Entry 44]
< 50 | O=C(NO)[C@H]1CN(C(=O)N2CCOCC2)CCN1S(=O)(=O)c1ccc(Oc2ccc(F)cc2)c(F)c1 [Entry 8]
1000 to 20000 | CN(C)c1ccc2c(S(=O)(=O)N3CCN(S(=O)(=O)c4cc(F)c(Oc5ccc(Cl)cc5)c(F)c4)[C@@H](C(=O)NO)C3)cccc2c1 [Entry 49]
< 50 | O=C(NO)[C@H]1CN(S(=O)(=O)c2cc(F)c(O)c(F)c2)CCN1S(=O)(=O)c1cc(F)c(Oc2ccc(Cl)cc2)c(F)c1 [Entry 41]
< 50 | CN1CCN(C(=O)NS(=O)(=O)N2CCN(S(=O)(=O)c3cc(F)c(Oc4ccc(Cl)cc4)c(F)c3)[C@@H](C(=O)NO)C2)CC1 [Entry 39]
< 50 | CNC(=O)CN1CCN(S(=O)(=O)c2cc(F)c(Oc3ccc(Cl)cc3)c(F)c2)[C@@H](C(=O)NO)C1 [Entry 19]
< 50 | O=C(NO)[C@H]1CN(C(=O)N2CCOCC2)CCN1S(=O)(=O)c1ccc(Oc2ccc(F)cc2)cc1 [Entry 2]
50 to 1000 | COCCOC(=O)N1CCN(S(=O)(=O)c2ccc(Oc3ccc(F)cc3)nc2)[C@@H](C(=O)NO)C1 [Entry 65]
50 to 1000 | C=CCN1CCN(S(=O)(=O)c2cc(F)c(Oc3ccc(Cl)cc3)c(F)c2)[C@@H](C(=O)NO)C1 [Entry 62]
< 50 | COCCOC(=O)N1CCN(S(=O)(=O)c2ccc(Oc3ccc(C#N)cc3)c(F)c2)[C@@H](C(=O)NO)C1 [Entry 5]
< 50 | COCCOC(=O)N1CCN(S(=O)(=O)c2cc(F)c(Oc3ccc(F)cc3)c(F)c2)[C@@H](C(=O)NO)C1 [Entry 10]
< 50 | CS(=O)(=O)N1CCN(S(=O)(=O)c2cc(F)c(Oc3ccc(Cl)cc3)c(F)c2)[C@@H](C(=O)NO)C1 [Entry 28]

IC50 [nM] | Structure (SMILES)
< 50 | O=C(NO)[C@H]1CN(C(=O)N2CCOCC2)CCN1S(=O)(=O)c1ccc(Oc2ccc(Cl)cc2)c(F)c1 [Entry 6]
< 50 | O=C(NO)[C@H]1CN(S(=O)(=O)NC(=O)N2CCOCC2)CCN1S(=O)(=O)c1cc(F)c(Oc2ccc(Cl)cc2)c(F)c1 [Entry 38]
< 50 | COCCOC(=O)N1CCN(S(=O)(=O)c2cc(F)c(Oc3ccccc3)c(F)c2)[C@@H](C(=O)NO)C1 [Entry 40]
50 to 1000 | CN1CCN(S(=O)(=O)c2cc(F)c(Oc3ccc(F)cc3)c(F)c2)[C@@H](C(=O)NO)C1 [Entry 14]
< 50 | O=C(NO)[C@H]1CN(C(=O)N2CCOCC2)CCN1S(=O)(=O)c1ccc(-c2cccc(F)c2)nc1 [Entry 58]
< 50 | COCCOC(=O)N1CCN(S(=O)(=O)c2ccc(Oc3ccc(Cl)cc3)c(F)c2)[C@@H](C(=O)NO)C1 [Entry 4]
< 50 | CN(C)S(=O)(=O)N1CCN(S(=O)(=O)c2cc(F)c(Oc3ccc(Cl)cc3)c(F)c2)[C@@H](C(=O)NO)C1 [Entry 36]
< 50 | O=C(NO)[C@H]1CN(S(=O)(=O)CCN2CCCCC2)CCN1S(=O)(=O)c1cc(F)c(Oc2ccc(Cl)cc2)c(F)c1 [Entry 53]
< 50 | N#Cc1ccc(Oc2ccc(S(=O)(=O)N3CCN(C(=O)N4CCOCC4)C[C@@H]3C(=O)NO)cc2F)cc1 [Entry 7]
< 50 | O=C(CN1CCOCC1)NC(=O)N1CCN(S(=O)(=O)c2cc(F)c(Oc3ccc(Cl)cc3)c(F)c2)[C@@H](C(=O)NO)C1 [Entry 46]
< 50 | COCCOC(=O)N1CCN(S(=O)(=O)c2ccc(-c3cccc(F)c3)nc2)[C@@H](C(=O)NO)C1 [Entry 66]
< 50 | CN1CCN(CCS(=O)(=O)N2CCN(S(=O)(=O)c3cc(F)c(Oc4ccc(Cl)cc4)c(F)c3)[C@@H](C(=O)NO)C2)CC1 [Entry 55]
< 50 | O=C(NO)[C@H]1CN(C(=O)OCc2ccccc2)CCN1S(=O)(=O)c1cc(F)c(Oc2ccc(Cl)cc2)c(F)c1 [Entry 32]
< 50 | O=C(NO)[C@H]1CN(C(=O)c2ccncc2)CCN1S(=O)(=O)c1cc(F)c(Oc2ccc(Cl)cc2)c(F)c1 [Entry 42]
< 50 | O=C(NO)[C@H]1CN(C(=O)C(=O)N2CCOCC2)CCN1S(=O)(=O)c1cc(F)c(Oc2ccc(Cl)cc2)c(F)c1 [Entry 31]
< 50 | CCCCCCC(=O)N1CCN(S(=O)(=O)c2cc(F)c(Oc3ccc(Cl)cc3)c(F)c2)[C@@H](C(=O)NO)C1 [Entry 43]
< 50 | O=C(NO)[C@H]1CN(C(=O)Cc2ccncc2)CCN1S(=O)(=O)c1cc(F)c(Oc2ccc(Cl)cc2)c(F)c1 [Entry 52]
50 to 1000 | O=C(NO)[C@H]1CNCCN1S(=O)(=O)c1cc(F)c(Oc2ccc(F)cc2)c(F)c1 [Entry 11]
50 to 1000 | O=C(O)CN1CCN(S(=O)(=O)c2cc(F)c(Oc3ccc(Cl)cc3)c(F)c2)[C@@H](C(=O)NO)C1 [Entry 63]
< 50 | CC(C)(C)OC(=O)N1CCN(S(=O)(=O)c2cc(F)c(Oc3ccc(F)cc3)c(F)c2)[C@@H](C(=O)NO)C1 [Entry 9]

IC50 [nM] | Structure (SMILES)
50 to 1000 | O=C(NO)[C@H]1CN(S(=O)(=O)CCN2CCOCC2)CCN1S(=O)(=O)c1cc(F)c(Oc2ccc(Cl)cc2)c(F)c1 [Entry 57]
< 50 | O=C(NO)[C@H]1CN(C(=O)OCCN2CCCC2)CCN1S(=O)(=O)c1cc(F)c(Oc2ccc(Cl)cc2)c(F)c1 [Entry 18]
< 50 | O=C(NO)[C@H]1CN(S(=O)(=O)NC(=O)N2CCCCC2)CCN1S(=O)(=O)c1cc(F)c(Oc2ccc(Cl)cc2)c(F)c1 [Entry 37]
< 50 | CN1CCN(CC(=O)N2CCN(S(=O)(=O)c3cc(F)c(Oc4ccc(Cl)cc4)c(F)c3)[C@@H](C(=O)NO)C2)CC1 [Entry 24]
< 50 | O=C(NO)[C@H]1CN(C(=O)N2CCOCC2)CCN1S(=O)(=O)c1cc(F)c(Oc2ccc(F)cc2)c(F)c1 [Entry 12]
< 50 | O=C(NO)[C@H]1CN(S(=O)(=O)c2cccc3cnccc23)CCN1S(=O)(=O)c1cc(F)c(Oc2ccc(Cl)cc2)c(F)c1 [Entry 48]
< 50 | O=C(NO)[C@H]1CN(C(=O)NCCN2CCCC2)CCN1S(=O)(=O)c1cc(F)c(Oc2ccc(Cl)cc2)c(F)c1 [Entry 17]
< 50 | COCCOC(=O)N1CCN(S(=O)(=O)c2ccc(Oc3ccc4c(c3)CCCC4)nc2)[C@@H](C(=O)NO)C1 [Entry 64]
< 50 | O=C(NO)[C@H]1CN(C(=O)Cc2cccnc2)CCN1S(=O)(=O)c1cc(F)c(Oc2ccc(Cl)cc2)c(F)c1 [Entry 47]
< 50 | COCCN1CCN(S(=O)(=O)c2cc(F)c(Oc3ccc(Cl)cc3)c(F)c2)[C@@H](C(=O)NO)C1 [Entry 29]
< 50 | CCOC(=O)N1CCN(CC(=O)N2CCN(S(=O)(=O)c3cc(F)c(Oc4ccc(Cl)cc4)c(F)c3)[C@@H](C(=O)NO)C2)CC1 [Entry 23]
< 50 | CN(C)C(=O)CN1CCN(S(=O)(=O)c2cc(F)c(Oc3ccc(Cl)cc3)c(F)c2)[C@@H](C(=O)NO)C1 [Entry 20]
< 50 | O=C(NO)[C@H]1CN(C(=O)C(=O)N2CCCCC2)CCN1S(=O)(=O)c1cc(F)c(Oc2ccc(Cl)cc2)c(F)c1 [Entry 35]
< 50 | COCCOC(=O)N1CCN(S(=O)(=O)c2ccc(Oc3ccc(F)cc3)cc2)[C@@H](C(=O)NO)C1 [Entry 1]
50 to 1000 | CN(C)c1cccc2c(S(=O)(=O)N3CCN(S(=O)(=O)c4cc(F)c(Oc5ccc(Cl)cc5)c(F)c4)[C@@H](C(=O)NO)C3)cccc12 [Entry 60]
< 50 | CN1CCC(OC(=O)N2CCN(S(=O)(=O)c3cc(F)c(Oc4ccc(Cl)cc4)c(F)c3)[C@@H](C(=O)NO)C2)CC1 [Entry 22]
< 50 | O=C(NO)[C@H]1CN(CC(=O)N2CCCC2)CCN1S(=O)(=O)c1cc(F)c(Oc2ccc(Cl)cc2)c(F)c1 [Entry 21]
< 50 | COCCOC(=O)N1CCN(S(=O)(=O)c2ccc(Oc3ccc(F)cc3)c(F)c2)[C@@H](C(=O)NO)C1 [Entry 3]
50 to 1000 | O=C(NO)[C@H]1CN(S(=O)(=O)Cc2cc(Cl)cc(Cl)c2)CCN1S(=O)(=O)c1cc(F)c(Oc2ccc(Cl)cc2)c(F)c1 [Entry 61]
